Experimental data as given in the supplement of paper PMC10307832.

Legend:
Experiment in all cases: relative viability (nuclei count vs DMSO), 5 days (fraction); higher = more cells survive
[1] = tested on: EKVX
Outline: (§1)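 Relative viability is defined as nuclei in treated wells over nuclei in vehicle wells. Duplicate plates were run and medians reported. Lung cancer cell lines in 1536-well plates were dosed by pin tool one day after seeding, with one drug or with a fixed anchor-drug dose plus five library-drug doses (not always all listed) in √10 steps, and nuclei were counted after 5 days.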

[2] = tested on: EMC-BAC-2
Outline: as §1

[3] = tested on: EPLC-272H
Outline: as §1

[4] = tested on: HCC-78
Outline: as §1

[5] = tested on: HCC-827
Outline: as §1

[6] = tested on: LCLC-103H
Outline: as §1

[7] = tested on: LK-2
Outline: as §1

[8] = tested on: LU99A
Outline: as §1

[9] = tested on: NCI-H1563
Outline: as §1

[10] = tested on: NCI-H1666
Outline: as §1

[11] = tested on: NCI-H1975
Outline: as §1

[12] = tested on: NCI-H2126
Outline: as §1

[13] = tested on: NCI-H23
Outline: as §1

[14] = tested on: NCI-H2405
Outline: as §1

[15] = tested on: NCI-H322M
Outline: as §1

[16] = tested on: PC-14
Outline: as §1

[17] = tested on: RERF-LC-KJ
Outline: as §1

[18] = tested on: SK-LU-1
Outline: as §1

[19] = tested on: SW 1573
Outline: as §1

Nc1ccn([C@@H]2O[C@H](CO)[C@@H](O)[C@@H]2O)c(=O)n1 [Cytarabine] + C[C@]1(O)C[C@@H](c2nc(-c3ccc4ccc(-c5ccccc5)nc4c3)c3c(N)nccn32)C1 [Linsitinib] (partner 1 µM)
relative viability ([1]; first compound 0.005 µM): 0.731
relative viability ([1]; first compound 0.01581 µM): 0.853
relative viability ([1]; first compound 0.05 µM): 0.945
relative viability ([1]; first compound 0.1581 µM): 0.585
relative viability ([1]; first compound 0.5 µM): 0.242
relative viability ([2]; first compound 0.005 µM): 0.695
relative viability ([2]; first compound 0.01581 µM): 0.751
relative viability ([2]; first compound 0.05 µM): 0.688
relative viability ([2]; first compound 0.1581 µM): 0.295
relative viability ([2]; first compound 0.5 µM): 0.247
relative viability ([3]; first compound 0.005 µM): 0.883
relative viability ([3]; first compound 0.01581 µM): 0.834
relative viability ([3]; first compound 0.05 µM): 0.945
relative viability ([3]; first compound 0.1581 µM): 0.522
relative viability ([3]; first compound 0.5 µM): 0.532
relative viability ([4]; first compound 0.005 µM): 0.538
relative viability ([4]; first compound 0.01581 µM): 0.457
relative viability ([4]; first compound 0.05 µM): 0.432
relative viability ([4]; first compound 0.1581 µM): 0.275
relative viability ([4]; first compound 0.5 µM): 0.132
relative viability ([5]; first compound 0.005 µM): 0.631
relative viability ([5]; first compound 0.01581 µM): 0.604
relative viability ([5]; first compound 0.05 µM): 0.488
relative viability ([5]; first compound 0.1581 µM): 0.266
relative viability ([5]; first compound 0.5 µM): 0.262
relative viability ([6]; first compound 0.005 µM): 0.976
relative viability ([6]; first compound 0.01581 µM): 1.22
relative viability ([6]; first compound 0.05 µM): 1.12
relative viability ([6]; first compound 0.1581 µM): 1.09
relative viability ([6]; first compound 0.5 µM): 1.18
relative viability ([7]; first compound 0.005 µM): 0.494
relative viability ([7]; first compound 0.01581 µM): 0.58
relative viability ([7]; first compound 0.05 µM): 0.247
relative viability ([7]; first compound 0.1581 µM): 0.215
relative viability ([7]; first compound 0.5 µM): 0.162
relative viability ([8]; first compound 0.005 µM): 0.621
relative viability ([8]; first compound 0.01581 µM): 0.577
relative viability ([8]; first compound 0.05 µM): 0.561
relative viability ([8]; first compound 0.1581 µM): 0.508
relative viability ([8]; first compound 0.5 µM): 0.47
relative viability ([9]; first compound 0.005 µM): 1.14
relative viability ([9]; first compound 0.01581 µM): 1.3
relative viability ([9]; first compound 0.05 µM): 1.04
relative viability ([9]; first compound 0.1581 µM): 1
relative viability ([9]; first compound 0.5 µM): 0.769
relative viability ([10]; first compound 0.005 µM): 0.774
relative viability ([10]; first compound 0.01581 µM): 0.876
relative viability ([10]; first compound 0.05 µM): 0.703
relative viability ([10]; first compound 0.1581 µM): 0.344
relative viability ([10]; first compound 0.5 µM): 0.305
relative viability ([11]; first compound 0.005 µM): 0.97
relative viability ([11]; first compound 0.01581 µM): 1.08
relative viability ([11]; first compound 0.05 µM): 0.973
relative viability ([11]; first compound 0.1581 µM): 0.764
relative viability ([11]; first compound 0.5 µM): 0.356
relative viability ([12]; first compound 0.005 µM): 0.71
relative viability ([12]; first compound 0.01581 µM): 0.661
relative viability ([12]; first compound 0.05 µM): 0.647
relative viability ([12]; first compound 0.1581 µM): 0.486
relative viability ([12]; first compound 0.5 µM): 0.474
relative viability ([13]; first compound 0.005 µM): 0.544
relative viability ([13]; first compound 0.01581 µM): 0.417
relative viability ([13]; first compound 0.05 µM): 0.294
relative viability ([13]; first compound 0.1581 µM): 0.157
relative viability ([13]; first compound 0.5 µM): 0.14
relative viability ([14]; first compound 0.005 µM): 0.933
relative viability ([14]; first compound 0.01581 µM): 0.714
relative viability ([14]; first compound 0.05 µM): 0.661
relative viability ([14]; first compound 0.1581 µM): 0.498
relative viability ([14]; first compound 0.5 µM): 0.383
relative viability ([15]; first compound 0.005 µM): 0.822
relative viability ([15]; first compound 0.01581 µM): 0.707
relative viability ([15]; first compound 0.05 µM): 0.628
relative viability ([15]; first compound 0.1581 µM): 0.464
relative viability ([15]; first compound 0.5 µM): 0.43
relative viability ([16]; first compound 0.005 µM): 0.967
relative viability ([16]; first compound 0.01581 µM): 0.862
relative viability ([16]; first compound 0.05 µM): 0.761
relative viability ([16]; first compound 0.1581 µM): 0.436
relative viability ([16]; first compound 0.5 µM): 0.464
relative viability ([17]; first compound 0.005 µM): 0.771
relative viability ([17]; first compound 0.01581 µM): 0.787
relative viability ([17]; first compound 0.05 µM): 0.757
relative viability ([17]; first compound 0.1581 µM): 0.474
relative viability ([17]; first compound 0.5 µM): 0.458
relative viability ([18]; first compound 0.005 µM): 0.954
relative viability ([18]; first compound 0.01581 µM): 0.918
relative viability ([18]; first compound 0.05 µM): 0.922
relative viability ([18]; first compound 0.1581 µM): 0.476
relative viability ([18]; first compound 0.5 µM): 0.39
relative viability ([19]; first compound 0.005 µM): 0.831
relative viability ([19]; first compound 0.01581 µM): 0.664
relative viability ([19]; first compound 0.05 µM): 0.621
relative viability ([19]; first compound 0.1581 µM): 0.369
relative viability ([19]; first compound 0.5 µM): 0.149

Nc1ccn([C@@H]2O[C@H](CO)[C@@H](O)[C@@H]2O)c(=O)n1 [Cytarabine] + Cc1nc(NC(=O)N2CCC[C@H]2C(N)=O)sc1-c1ccnc(C(C)(C)C(F)(F)F)c1 [Alpelisib] (partner 2 µM)
relative viability ([1]; first compound 0.005 µM): 0.867
relative viability ([1]; first compound 0.01581 µM): 0.893
relative viability ([1]; first compound 0.05 µM): 0.818
relative viability ([1]; first compound 0.1581 µM): 0.371
relative viability ([1]; first compound 0.5 µM): 0.211
relative viability ([2]; first compound 0.005 µM): 0.64
relative viability ([2]; first compound 0.01581 µM): 0.658
relative viability ([2]; first compound 0.05 µM): 0.598
relative viability ([2]; first compound 0.1581 µM): 0.193
relative viability ([2]; first compound 0.5 µM): 0.182
relative viability ([3]; first compound 0.005 µM): 0.7
relative viability ([3]; first compound 0.01581 µM): 0.781
relative viability ([3]; first compound 0.05 µM): 0.609
relative viability ([3]; first compound 0.1581 µM): 0.345
relative viability ([3]; first compound 0.5 µM): 0.337
relative viability ([4]; first compound 0.005 µM): 0.41
relative viability ([4]; first compound 0.01581 µM): 0.298
relative viability ([4]; first compound 0.05 µM): 0.281
relative viability ([4]; first compound 0.1581 µM): 0.185
relative viability ([4]; first compound 0.5 µM): 0.202
relative viability ([5]; first compound 0.005 µM): 0.697
relative viability ([5]; first compound 0.01581 µM): 0.448
relative viability ([5]; first compound 0.05 µM): 0.467
relative viability ([5]; first compound 0.1581 µM): 0.242
relative viability ([5]; first compound 0.5 µM): 0.197
relative viability ([6]; first compound 0.005 µM): 0.988
relative viability ([6]; first compound 0.01581 µM): 0.906
relative viability ([6]; first compound 0.05 µM): 1.02
relative viability ([6]; first compound 0.1581 µM): 0.967
relative viability ([6]; first compound 0.5 µM): 0.809
relative viability ([7]; first compound 0.005 µM): 0.641
relative viability ([7]; first compound 0.01581 µM): 0.716
relative viability ([7]; first compound 0.05 µM): 0.381
relative viability ([7]; first compound 0.1581 µM): 0.276
relative viability ([7]; first compound 0.5 µM): 0.245
relative viability ([8]; first compound 0.005 µM): 0.519
relative viability ([8]; first compound 0.01581 µM): 0.565
relative viability ([8]; first compound 0.05 µM): 0.51
relative viability ([8]; first compound 0.1581 µM): 0.5
relative viability ([8]; first compound 0.5 µM): 0.406
relative viability ([9]; first compound 0.005 µM): 0.938
relative viability ([9]; first compound 0.01581 µM): 1.02
relative viability ([9]; first compound 0.05 µM): 0.845
relative viability ([9]; first compound 0.1581 µM): 0.888
relative viability ([9]; first compound 0.5 µM): 0.663
relative viability ([10]; first compound 0.005 µM): 0.751
relative viability ([10]; first compound 0.01581 µM): 0.855
relative viability ([10]; first compound 0.05 µM): 0.647
relative viability ([10]; first compound 0.1581 µM): 0.279
relative viability ([10]; first compound 0.5 µM): 0.35
relative viability ([11]; first compound 0.005 µM): 0.442
relative viability ([11]; first compound 0.01581 µM): 0.761
relative viability ([11]; first compound 0.05 µM): 0.801
relative viability ([11]; first compound 0.1581 µM): 0.418
relative viability ([11]; first compound 0.5 µM): 0.313
relative viability ([12]; first compound 0.005 µM): 0.765
relative viability ([12]; first compound 0.01581 µM): 0.597
relative viability ([12]; first compound 0.05 µM): 0.694
relative viability ([12]; first compound 0.1581 µM): 0.564
relative viability ([12]; first compound 0.5 µM): 0.408
relative viability ([13]; first compound 0.005 µM): 0.575
relative viability ([13]; first compound 0.01581 µM): 0.547
relative viability ([13]; first compound 0.05 µM): 0.373
relative viability ([13]; first compound 0.1581 µM): 0.195
relative viability ([13]; first compound 0.5 µM): 0.127
relative viability ([14]; first compound 0.005 µM): 0.771
relative viability ([14]; first compound 0.01581 µM): 0.657
relative viability ([14]; first compound 0.05 µM): 0.512
relative viability ([14]; first compound 0.1581 µM): 0.527
relative viability ([14]; first compound 0.5 µM): 0.301
relative viability ([15]; first compound 0.005 µM): 0.68
relative viability ([15]; first compound 0.01581 µM): 0.607
relative viability ([15]; first compound 0.05 µM): 0.529
relative viability ([15]; first compound 0.1581 µM): 0.283
relative viability ([15]; first compound 0.5 µM): 0.291
relative viability ([16]; first compound 0.005 µM): 0.838
relative viability ([16]; first compound 0.01581 µM): 1.13
relative viability ([16]; first compound 0.05 µM): 1.05
relative viability ([16]; first compound 0.1581 µM): 0.512
relative viability ([16]; first compound 0.5 µM): 0.357
relative viability ([17]; first compound 0.005 µM): 0.742
relative viability ([17]; first compound 0.01581 µM): 0.657
relative viability ([17]; first compound 0.05 µM): 0.864
relative viability ([17]; first compound 0.1581 µM): 0.499
relative viability ([17]; first compound 0.5 µM): 0.36
relative viability ([18]; first compound 0.005 µM): 0.805
relative viability ([18]; first compound 0.01581 µM): 0.826
relative viability ([18]; first compound 0.05 µM): 0.62
relative viability ([18]; first compound 0.1581 µM): 0.347
relative viability ([18]; first compound 0.5 µM): 0.303
relative viability ([19]; first compound 0.005 µM): 0.793
relative viability ([19]; first compound 0.01581 µM): 0.602
relative viability ([19]; first compound 0.05 µM): 0.7
relative viability ([19]; first compound 0.1581 µM): 0.219
relative viability ([19]; first compound 0.5 µM): 0.182
